The text below walks through data of ChEMBL document CHEMBL3351765, “Recent progress in sodium channel modulators for pain” (Bioorg Med Chem Lett, 2014).

Molecules are shown by their SMILES.

Assay [1] concerns the target T1, Sodium channel protein type 9 subunit alpha (Homo sapiens, UniProt Q15858). The assay is described as follows: Inhibition of human Nav1.7 expressed in HEK cells by patch-clamp method. Type of assay: cell-based, HEK293. Background: The patch-clamp technique gives a direct electrical read-out from membranes.
The target in assay [2] is T1, Sodium channel protein type 9 subunit alpha. The assay is described as follows: Inhibition of human Nav1.7 expressed in HEK293 cells by FLIPR method. Type of assay: cell-based.
Assay [3] addresses T2, Sodium channel protein type 5 subunit alpha (Homo sapiens, UniProt Q14524). In words: Inhibition of Nav1.5 (unknown origin) expressed in HEK293 cells by IonWorks patch-clamp method. Type of assay: cell-based.
The target in assay [4] is T1, Sodium channel protein type 9 subunit alpha. The assay is described as follows: Inhibition of Nav1.7 (unknown origin).
Assay [5] shares this target. In words: Inhibition of human Nav1.7 expressed in HEK cells by whole-cell patch-clamp technique. The class given is cell-based, HEK293.
Assay [6] has the same target. The assay is described as follows: Inhibition of Nav1.7 (unknown origin) expressed in HEK293 cells by PatchXpress method. The class given is cell-based.
Assay [7] has the same target. In words: Inhibition of human Nav1.7 expressed in HEK293 cells by electrophysiology method. The class given is cell-based.
For the next assay, the system named is HEK293. In words: Selectivity ratio of IC50 for human Nav1.5 to IC50 for human Nav1.7 expressed in HEK293 cells. The class given is cell-based.
Assay [8] concerns the target T1, Sodium channel protein type 9 subunit alpha. In words: Inhibition of human Nav1.7 expressed in HEK293 cells […] by QPatch method. The class given is cell-based.
In assay [9] the target is T2, Sodium channel protein type 5 subunit alpha. In words: Inhibition of Nav1.5 (unknown origin).

T1 sequence (Q15858 whole entry): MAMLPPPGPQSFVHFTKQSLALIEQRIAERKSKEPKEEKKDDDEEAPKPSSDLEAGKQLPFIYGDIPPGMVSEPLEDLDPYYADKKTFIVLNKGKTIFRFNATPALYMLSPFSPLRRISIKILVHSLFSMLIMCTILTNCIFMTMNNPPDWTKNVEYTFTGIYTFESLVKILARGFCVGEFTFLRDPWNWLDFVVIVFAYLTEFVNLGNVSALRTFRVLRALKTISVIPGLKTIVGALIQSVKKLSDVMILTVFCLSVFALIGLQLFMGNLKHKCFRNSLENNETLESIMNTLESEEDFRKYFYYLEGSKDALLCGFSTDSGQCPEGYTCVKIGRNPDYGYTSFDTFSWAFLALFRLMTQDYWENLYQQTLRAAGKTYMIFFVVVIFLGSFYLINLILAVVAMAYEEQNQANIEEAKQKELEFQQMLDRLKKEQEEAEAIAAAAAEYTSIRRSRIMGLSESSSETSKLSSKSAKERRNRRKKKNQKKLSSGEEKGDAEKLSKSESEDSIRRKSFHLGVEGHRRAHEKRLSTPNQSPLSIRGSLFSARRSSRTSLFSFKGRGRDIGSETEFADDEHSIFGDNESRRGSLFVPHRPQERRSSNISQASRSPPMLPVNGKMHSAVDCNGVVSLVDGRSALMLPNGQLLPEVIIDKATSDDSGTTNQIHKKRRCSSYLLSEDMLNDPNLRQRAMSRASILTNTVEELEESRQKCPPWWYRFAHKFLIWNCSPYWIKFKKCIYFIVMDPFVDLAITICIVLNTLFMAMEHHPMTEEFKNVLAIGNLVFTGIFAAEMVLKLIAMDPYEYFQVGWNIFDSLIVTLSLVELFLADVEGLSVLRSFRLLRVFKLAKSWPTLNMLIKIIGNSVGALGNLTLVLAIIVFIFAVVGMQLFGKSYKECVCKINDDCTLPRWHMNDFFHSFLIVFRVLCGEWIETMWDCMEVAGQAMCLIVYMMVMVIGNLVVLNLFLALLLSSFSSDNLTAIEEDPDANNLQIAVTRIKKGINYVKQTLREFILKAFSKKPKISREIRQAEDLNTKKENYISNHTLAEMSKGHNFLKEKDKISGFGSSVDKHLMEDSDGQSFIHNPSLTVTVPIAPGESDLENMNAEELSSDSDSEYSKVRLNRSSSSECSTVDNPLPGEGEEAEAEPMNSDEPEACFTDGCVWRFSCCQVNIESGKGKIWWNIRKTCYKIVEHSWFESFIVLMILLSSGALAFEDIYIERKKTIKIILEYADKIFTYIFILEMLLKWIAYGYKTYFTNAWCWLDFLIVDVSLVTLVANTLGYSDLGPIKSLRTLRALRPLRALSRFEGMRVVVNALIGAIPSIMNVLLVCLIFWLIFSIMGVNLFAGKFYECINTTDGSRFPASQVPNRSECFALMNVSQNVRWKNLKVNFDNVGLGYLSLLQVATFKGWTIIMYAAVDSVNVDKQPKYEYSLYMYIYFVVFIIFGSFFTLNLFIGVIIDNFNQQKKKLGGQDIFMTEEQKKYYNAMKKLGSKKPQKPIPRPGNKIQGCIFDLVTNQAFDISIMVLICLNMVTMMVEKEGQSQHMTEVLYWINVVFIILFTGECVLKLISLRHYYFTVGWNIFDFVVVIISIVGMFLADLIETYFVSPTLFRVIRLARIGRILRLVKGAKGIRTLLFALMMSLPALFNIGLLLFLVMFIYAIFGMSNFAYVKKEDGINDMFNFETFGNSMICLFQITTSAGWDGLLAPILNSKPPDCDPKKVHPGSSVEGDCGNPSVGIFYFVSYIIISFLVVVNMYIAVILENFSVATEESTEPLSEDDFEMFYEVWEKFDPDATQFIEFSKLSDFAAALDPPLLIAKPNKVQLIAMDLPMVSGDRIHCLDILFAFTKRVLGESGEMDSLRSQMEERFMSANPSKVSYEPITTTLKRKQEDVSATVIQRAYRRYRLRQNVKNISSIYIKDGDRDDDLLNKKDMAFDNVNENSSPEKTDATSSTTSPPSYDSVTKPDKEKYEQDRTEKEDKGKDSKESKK
T2 sequence (Q14524 whole entry): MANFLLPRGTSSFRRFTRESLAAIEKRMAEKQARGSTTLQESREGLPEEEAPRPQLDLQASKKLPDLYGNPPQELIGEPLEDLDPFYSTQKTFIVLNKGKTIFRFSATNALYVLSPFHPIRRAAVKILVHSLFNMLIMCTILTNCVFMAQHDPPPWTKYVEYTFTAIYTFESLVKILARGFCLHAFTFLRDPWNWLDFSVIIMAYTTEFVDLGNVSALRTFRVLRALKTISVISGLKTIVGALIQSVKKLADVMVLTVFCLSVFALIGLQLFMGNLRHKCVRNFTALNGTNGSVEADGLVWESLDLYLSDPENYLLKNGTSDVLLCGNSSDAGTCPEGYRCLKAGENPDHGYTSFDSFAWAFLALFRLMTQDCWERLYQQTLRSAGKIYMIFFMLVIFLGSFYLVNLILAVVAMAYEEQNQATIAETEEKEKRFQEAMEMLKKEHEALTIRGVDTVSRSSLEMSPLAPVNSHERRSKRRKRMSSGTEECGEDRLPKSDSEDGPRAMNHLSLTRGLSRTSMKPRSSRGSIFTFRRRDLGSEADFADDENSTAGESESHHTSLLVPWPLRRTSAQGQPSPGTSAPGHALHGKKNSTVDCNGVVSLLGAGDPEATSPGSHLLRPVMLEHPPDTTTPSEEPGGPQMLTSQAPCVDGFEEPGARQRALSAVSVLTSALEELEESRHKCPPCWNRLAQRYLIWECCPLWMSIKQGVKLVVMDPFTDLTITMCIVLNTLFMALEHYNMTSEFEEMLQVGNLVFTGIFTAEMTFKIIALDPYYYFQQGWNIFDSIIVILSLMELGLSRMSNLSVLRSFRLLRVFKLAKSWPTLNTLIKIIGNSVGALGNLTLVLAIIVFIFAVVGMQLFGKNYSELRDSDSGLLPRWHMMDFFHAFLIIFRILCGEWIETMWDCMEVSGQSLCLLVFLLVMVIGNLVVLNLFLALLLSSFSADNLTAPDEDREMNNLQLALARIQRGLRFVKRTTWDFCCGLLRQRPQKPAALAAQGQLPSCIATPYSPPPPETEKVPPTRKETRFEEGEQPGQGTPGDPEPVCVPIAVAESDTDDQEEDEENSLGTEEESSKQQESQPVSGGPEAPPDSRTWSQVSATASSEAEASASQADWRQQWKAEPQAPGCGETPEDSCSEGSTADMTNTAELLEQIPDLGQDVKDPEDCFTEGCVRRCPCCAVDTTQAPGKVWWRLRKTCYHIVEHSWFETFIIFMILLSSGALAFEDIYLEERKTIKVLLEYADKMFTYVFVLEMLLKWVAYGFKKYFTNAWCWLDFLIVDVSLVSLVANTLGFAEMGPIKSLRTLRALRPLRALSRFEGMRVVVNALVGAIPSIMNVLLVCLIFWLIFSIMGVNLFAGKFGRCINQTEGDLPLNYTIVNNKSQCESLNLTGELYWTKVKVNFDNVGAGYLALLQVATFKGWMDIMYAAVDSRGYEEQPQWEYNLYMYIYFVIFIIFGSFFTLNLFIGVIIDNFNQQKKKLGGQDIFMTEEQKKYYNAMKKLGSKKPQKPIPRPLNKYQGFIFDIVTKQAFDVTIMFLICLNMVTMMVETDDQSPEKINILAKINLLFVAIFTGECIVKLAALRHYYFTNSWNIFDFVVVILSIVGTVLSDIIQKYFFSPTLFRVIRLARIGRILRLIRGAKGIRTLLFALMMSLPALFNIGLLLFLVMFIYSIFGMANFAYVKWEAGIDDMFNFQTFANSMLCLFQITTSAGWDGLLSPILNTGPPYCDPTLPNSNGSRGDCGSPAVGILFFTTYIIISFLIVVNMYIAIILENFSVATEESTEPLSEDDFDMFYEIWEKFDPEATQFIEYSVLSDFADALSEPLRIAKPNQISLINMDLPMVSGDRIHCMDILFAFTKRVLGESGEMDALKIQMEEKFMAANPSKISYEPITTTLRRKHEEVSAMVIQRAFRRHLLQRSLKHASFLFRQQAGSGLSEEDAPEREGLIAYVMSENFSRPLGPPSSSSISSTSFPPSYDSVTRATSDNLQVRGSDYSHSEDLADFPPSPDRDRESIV

One may read the IC50 as the midpoint of a concentration-inhibition curve. `CCOC1CC(c2scnc2C)OC2(CCN(C(=O)c3ccc(OC(C)C)c(C)c3)CC2)C1` (centres undefined) registered a concentration for half-maximal inhibition (IC50) in assay [1] of less than 2000 nM.
In [2], `CN(C)c1ccc(C(=O)NC2CC23CCN(c2ccccc2)CC3)c2ccccc12` (centres undefined) returned an IC50 of 237 nM.
In assay [1], `COc1cc(C(=O)N2CCC3(CC2)c2ccc(C(F)(F)F)n2CCN3C)ccc1OC(C)C` yielded an IC50 of less than 2000 nM.
For the compound `O=S(=O)(Nc1ncns1)N1CCc2c(cccc2-c2ccc(C(F)(F)F)cc2C2=CCNCC2)C1`, the IC50 in [3] is more than 10000 nM.
Take `O=S(=O)(Nc1ncns1)c1cc(F)c(OC[C@@H]2CNCC[C@H]2c2ccc(Cl)cc2)cc1F`: it took 3.3 nM to reach half-maximal inhibition in assay [4] (IC50).
The compound `COc1cc(C(=O)N2CCC3(CC2)CN(CC(F)F)CC(c2ccccn2)O3)ccc1OC(C)C` (centres undefined) had an IC50 in assay [1] of less than 2000 nM.
Compound `CC1(COc2ccc(-n3nc(C4CC4)c4cc(C(=O)NS(C)(=O)=O)ccc43)cn2)CC1` showed an IC50 in [5] of 130 nM.
In the case of `Cn1cc(-c2ccc(C(F)(F)F)cc2-c2cn[nH]c2)c2ccc(S(=O)(=O)Nc3ncns3)cc21`, the IC50 in assay [6] is 38 nM; in assay [3], more than 10000 nM.
The compound `CCCCCN1C(=O)COCC1c1cncc(-c2ccc(OC(F)(F)F)cc2)c1` (centres undefined) displayed an IC50 in assay [2] of 770 nM.
For `O=S(=O)(Nc1ncns1)c1ccc2c(c1)OCCN2c1ccc(C(F)(F)F)cc1Cl`, the half-maximal inhibitory concentration (IC50) in assay [3] was more than 10000 nM.
Regarding `O=C(NCC1CCCCN1)c1ccc(Oc2cc(C(F)(F)F)cc(C(F)(F)F)c2)cc1` (centres undefined), the IC50 in assay [2] was 1150 nM.
A word on the Ki: it is a measure of affinity in units of concentration, obtained from inhibition or displacement. Higher therefore signals a looser hold on the target. The compound `NC(=O)c1cnc(-c2ccc(Oc3cc(F)cc(Cl)c3)cc2)nc1[C@@H](O)CO` returned an IC50 in assay [2] of 67 nM. The same compound displayed a Ki in assay [7] of 27 nM.
As for `C[C@H](c1ccccc1C1(F)CNC1)n1c(=O)oc2cc(S(=O)(=O)Nc3nccs3)c(F)cc21`, in the assay on HEK293, the Ratio IC50 was 5540.
For the compound `Cc1oc2nc(-c3ccccc3Cl)nn2c1CNCCc1ccccc1Cl`, the IC50 in assay [2] is 620 nM.
As for `Cc1ccc(OCC(C)C)c(-c2cccc([C@H]3CC[C@]4(CCN(C)C4=O)N3)c2)c1`, the IC50 in [8] is 398 nM.
As for `CCOc1ncccc1-c1cc(C(=O)NS(C)(=O)=O)ccc1Oc1ccc(Cl)c(C(F)(F)F)c1`, in assay [5], the half-maximal inhibitory concentration (IC50) was 35 nM.
Turning to `Nc1noc2ccc(-c3cc(Cl)ccc3Oc3cc(F)c(S(=O)(=O)Nc4ncns4)cc3F)cc12`, in assay [9], the IC50 is more than 1000 nM.
